Measurements published in the NIST ThermoML archive (doi:10.1021/je800503d).
Numbers after ± are expanded uncertainties.

Settings: 298.15 K; 101.33 kPa; Liquid; Vibrating tube method

SMILES	mass density [kg/m3]
COCCOCCOCCOCCOC [2,5,8,11,14-pentaoxapentadecane]	1006.2 ± 0.24
CCO [ethanol]	785.04 ± 0.13
COCCOCCOCCOC [2,5,8,11-tetraoxadodecane]	980.42 ± 0.23
CCCCCCCCCCCCCCCC [hexadecane]	770.01 ± 0.24
